According to ChEMBL document CHEMBL3507680, “University of Dundee, Gates Library screen for HepG2 cell viability”:

Assay: Human HepG2 cell viability assay in 384 well format
Type: toxicity, cell-based
Parameters: dose 125 nL, time 70.5 hour; cytotoxicity at 70.5 h: concentration not given beside the values
Details: HepG2 cells, read-out: Inhibition

Row | SMILES | cytotoxicity at 70.5 h
1 | NC(=O)CCS(=O)(=O)Cc1ccc(OCC(F)(F)F)cc1 | -9.93%
2 | Cc1ccc2c(c1)[C@@H](CC(=O)N1CCN(C)CC1)CCO2 | 3.15%
3 | CCCN1CCN(C(=O)c2cncnc2C)[C@H]2CS(=O)(=O)C[C@H]21 | 3.92%
4 | CCCNC(=O)c1ccc(NC(=O)NC(C)c2ccccn2)cc1 (stereo not drawn) | -8.01%
5 | O=C(CS(=O)(=O)c1ccccn1)NC1CCCc2ccccc21 (stereo not drawn) | 1%
6 | O=C(C1CC1)N1CCC2(CCN2Cc2ccc(F)cc2)C1 (stereo not drawn) | -0.516%
7 | O[C@@]1(CNCC2(Cn3ccnc3)CC2)CCCN2CCCC[C@@H]21 | -13.1%
8 | CN(CCCN1CCCCCC1)C(=O)c1ccccc1NCC(=O)O | -12.7%
9 | O=c1[nH]c2nc(NCC3CCCO3)ncc2c(=O)n1-c1cccc(F)c1 (stereo not drawn) | 4.03%
10 | CCc1cc(C(=O)N2Cc3ccccc3OC3(CCOCC3)C2)on1 | 8.33%
11 | Cc1cc(C(=O)N2CCS(=O)(=O)CC2)c(C)o1 | -2.07%
12 | NC(=O)NC(=O)CCN1CCN(c2nccs2)CC1 | 19.6%
13 | N[C@H]1CN(C(=O)CCc2cc(Cl)no2)C[C@@H]1c1ccccc1 | 29%
14 | CCn1ccnc1CNCC1CCN(CC(O)c2ccccc2)CC1 (stereo not drawn) | -11%
15 | COC(=O)c1cc(OC)c(OC)cc1NCc1c(C)noc1C | -2.42%
16 | O=C(Cn1ccnc1)N1CCCC(OCc2cccnc2)C1 (stereo not drawn) | 29.5%
17 | CC(NC(=O)NCCn1ccnc1)c1ccc2c(c1)OCCO2 (stereo not drawn) | -14.3%
18 | O=C(CSc1ccccc1)Nc1cnn(CC(=O)N2CCCO2)c1 | -2.01%
19 | Cc1cnn(CCNCc2ccc(OCc3ccncc3)cc2)c1 | 0.513%
20 | Fc1ccc(C2CN(c3ncnc4nc[nH]c34)CCO2)cc1 (stereo not drawn) | -11.9%
21 | CC(C)N(Cc1nccn1C)C(=O)c1cnc(O)cn1 | -3.41%
22 | CCc1nsc(N2CCn3c(nnc3-c3ccccc3)C2)n1 | -4.9%
23 | CN(C)C(=O)CN1CCC2(CC1)COC2 | -5.41%

Row | SMILES | cytotoxicity at 70.5 h
24 | CC(C)CN1CCc2c(CN(C)Cc3ccco3)cncc2C1 | 4.58%
25 | O=C(NCc1nncn1C1CC1)C1(c2ccccc2)CCOCC1 | -6.33%
26 | O=C(c1scc2c1OCCO2)N1CCC(Cc2cccc(CO)c2)C1 (stereo not drawn) | -3.37%
27 | Cc1ccsc1C(=O)N1CCCn2c(nc(CN(C)C)cc2=O)C1 | 8.58%
28 | CC(C)C1CN(C(=O)c2cc(=O)[nH]c(=O)[nH]2)CCCN1CC1CC1 (stereo not drawn) | -0.864%
29 | Cc1cc(C(=O)NCCN2CCN(S(C)(=O)=O)CC2)no1 | -10.9%
30 | O=C(c1cccs1)N1CCN(C(=O)c2ncoc2-c2ccco2)CC1 | 5.95%
31 | COc1ncc(C(=O)N(Cc2cnn(C)c2)C(C)C)cn1 | -7.11%
32 | CN(C)C(=O)c1c[nH]nc1-c1ccc(CNC(=O)c2cnccn2)cc1 | -1.73%
33 | CC(C)c1ccc(O)c(C(=O)NC2CCN(c3ncccn3)CC2)c1 | -19.5%
34 | CN1CC(=O)N(C2CCCNC2)Cc2c(NC3CCC3)ncnc21 (stereo not drawn) | -3.06%
35 | Cc1noc(C)c1NS(=O)(=O)c1cc(C(=O)O)cc(Cl)c1Cl | -4.5%
36 | O=C(NCC1(O)CCOC1)c1ccccc1Cl (stereo not drawn) | -3.89%
37 | Cc1ccsc1C(=O)N1CCCn2nnc(Cn3cccn3)c2C1 | 9.85%
38 | CCN1CCC2(CN(C(=O)N(C)C)CC23CCN(CC2CC2)CC3)C1=O (stereo not drawn) | 18.4%
39 | COc1ccc2c(c1)[nH]c1c(N(C)CC3OCCO3)ncnc12 | 7.79%
40 | CC(C)CCN1CC2(CCN(C(=O)C3(C)CCCCO3)CC2)OC1=O (stereo not drawn) | 49.2%
41 | CCc1noc(C(C)N(C)CC(=O)Nc2cccc(C)n2)n1 (stereo not drawn) | -6.94%
42 | COCC1CC2(CCN(c3cc(OC)ncn3)CC2)CN1C(C)C (stereo not drawn) | -8.64%
43 | Cc1nc(CC(=O)N2c3ccccc3OCC2C)cs1 (stereo not drawn) | -9.24%
44 | Cc1ccc(C(C)N(C)Cc2nc3c(cnn3C)c(=O)[nH]2)s1 (stereo not drawn) | -8.32%
45 | O=C(c1ccoc1)N1CCOC2(COCCN(CC3CC3)C2)C1 (stereo not drawn) | -1.92%
46 | Cc1[nH]ncc1CCCNC(=O)Nc1ccc(F)cc1 | 3.38%

Row | SMILES | cytotoxicity at 70.5 h
47 | CCC(CO)NC(=O)NCc1cc(C#N)ccc1F (stereo not drawn) | -9.99%
48 | O=C(Cn1ccc(-c2ccccc2)n1)N1CCN(C(=O)C2CC2)CC1 | -2.62%
49 | Cc1nc2c(NC(CC(C)(C)C)c3cccnc3)ncnc2o1 (stereo not drawn) | -10.9%
50 | Cc1cccnc1NC(=O)C1CCN(C(C)C(=O)NC(C)(C)C)CC1 (stereo not drawn) | -10.6%
51 | CC(C)NC(=O)N1CC[C@@H]2[C@@H]1CC(=O)N2Cc1cccnc1 | -13.6%
52 | CC(=O)Nc1nc(C2CCCN(C(=O)CN(C)C)C2)cs1 (stereo not drawn) | -9.21%
53 | CC(=O)N1[C@H](CN(C)C)C[C@@H]2CN(C(=O)c3cccc(F)c3)CC[C@@H]21 | -14.7%
54 | Cc1ccsc1[C@@H]1CCN(C(=O)CCC(=O)N2CCCCCC2)C[C@H]1O | 0.789%
55 | COC[C@@H]1CCC[C@]12CN(Cc1ccco1)CCO2 | -1.04%
56 | CCC(C(=O)N(C)C)N1CCC(c2nccn2Cc2cscn2)CC1 (stereo not drawn) | -10%
57 | O=C(CCCC1CCCC1)NS(=O)(=O)CC1CC1 | -2.25%
58 | Cc1ccc(C#N)c(N2CCCC(c3nccn3Cc3cscn3)C2)n1 (stereo not drawn) | -3.22%
59 | Cc1ccc(S(=O)(=O)N(C)Cc2nccs2)cc1N(C)C | 6.76%
60 | COc1cc2c(cc1CNC(Cc1cccs1)c1nccs1)OCCO2 (stereo not drawn) | -3.19%
61 | c1cc(-c2nc(CN3CCc4c(ncn4C4CC4)C3)cs2)cs1 | -8.75%
62 | N#CCCN(CC1CCCO1)C(=O)c1ccsc1 (stereo not drawn) | -4.29%
63 | N#CCCN(Cc1ccco1)C(=O)CN1CCCC1c1cccs1 (stereo not drawn) | 1.44%
64 | CC(C)(C)C(=O)NCCn1ccc(-c2ccccn2)n1 | -1.26%
65 | Cc1cnn(C2CCCN(C(=O)CN(C)c3cnccn3)C2)c1 (stereo not drawn) | -2.8%
66 | CCOC1COC2(CCN(Cc3ccc4c(c3)OCO4)CC2)C1 (stereo not drawn) | -9.87%
67 | Cc1nc2cc(C3CCN(C(=O)c4ccccn4)CC3)nn2c(O)c1C | 44.6%
68 | CC(C)C(=O)N(C)CC(=O)Nc1ccc(Br)cn1 | -2.8%
69 | c1ccc(O[C@H]2CO[C@@]3(CCCN(Cc4nccs4)C3)C2)nc1 | 42.1%

Row | SMILES | cytotoxicity at 70.5 h
70 | c1ccc(-c2nc(CCNCc3ccccn3)co2)cc1 | -1.18%
71 | CN(CCc1cn[nH]c1)C(=O)C1CC(=O)N(Cc2ccccn2)C1 (stereo not drawn) | 6.7%
72 | Cc1sc2nc(SC(C)c3nc(C(C)C)no3)nc(N)c2c1C (stereo not drawn) | 3.75%
73 | O=C(c1cc[nH]n1)N1CCc2onc(COc3cccnc3)c2C1 | -6.72%
74 | CC(=O)N1CCC(C(=O)NC2CC(C)(C)Oc3cc(C)ccc32)CC1 (stereo not drawn) | 12.8%
75 | Cc1cc(C)nc(NC2CCOC3(CCCC3)C2)n1 (stereo not drawn) | 3.01%
76 | Nc1cc2c(nn1)CCN(C(=O)CC1CCCCC1)C2 | -8.85%
77 | Cc1cccc(N2CCN(CCC(=O)NCc3cnc(C)cn3)CC2)c1 | 23.9%
78 | O=C(CO)N1CCCC2(CCN(c3ccsc3)C2=O)C1 (stereo not drawn) | -8.82%
79 | COc1cc(C)nc(N2CCN(C(=O)CCc3ccco3)CC2)n1 | -2.64%
80 | CCCc1nnc(N(C)CC2CCN(CC(C)C)C2)o1 (stereo not drawn) | -1.56%
81 | Cc1nccc([C@H]2C[C@@H]3CCN(S(=O)(=O)N(C)C)C[C@H]3O2)n1 | -10.6%
82 | O=S(=O)(NCCN1CC=CC1)c1ccc(Cl)cc1 | -6.79%
83 | COc1ccccc1C(=O)NCc1n[nH]c(C)n1 | 0.0224%
84 | CCOc1ccc(CC(CNC(=O)c2sccc2C)C(N)=O)cc1 (stereo not drawn) | -1.61%
85 | COc1cn(CC(=O)N2CCN(c3ccc(F)cc3)CC2)c(C)cc1=O | 27.9%
86 | O=C(NCCNc1ncccn1)N1CCN(C2CCCC2)CC1 | -8.5%
87 | Cn1ncc2c(=O)[nH]c(CN3CCCc4cc(F)cc(F)c43)nc21 | -15.9%
88 | Cc1nc[nH]c1CN(C)Cc1cnn(-c2ccc(F)cc2)c1 | 28.9%
89 | Cc1nn(C)c(C)c1NC(=O)c1cccc(CN2C[C@H]3CC[C@@H](C2)N3)c1 | -13.8%
90 | COc1ccc(C(C)NC(=O)Cn2ccc(=O)n(C)c2=O)cc1OC (stereo not drawn) | -6.92%
91 | c1ccc2c(c1)CC(Cc1cc(N3CCCC3)cnn1)CCO2 (stereo not drawn) | 2.31%
92 | CC(C)Oc1ccccc1CNC(=O)c1[nH]ncc1Br | 7%

Row | SMILES | cytotoxicity at 70.5 h
93 | CCOc1cccc(C(C)NC(=O)N2CCC3(CC2)OCCO3)c1 (stereo not drawn) | -13.2%
94 | CC(Cn1cccn1)NCc1csc(-c2ccc3c(c2)OCO3)n1 (stereo not drawn) | -5.39%
95 | Cn1c(C2CCCCN2C(=O)CN2CCCC2=O)nc2ccccc21 (stereo not drawn) | 21.3%
96 | CN(C)C(=O)c1cn[nH]c1C1(C)CCN(c2ncccn2)CC1 | 2.96%
97 | O=S1(=O)CCC(CNc2cc(-c3ccccc3)nc3ccnn23)C1 (stereo not drawn) | -9.95%
98 | CNc1ncc(CN(C)c2nc(C3CCCC3)nc3c2cnn3C)cn1 | 6.56%
99 | CC(=O)N1CCOC(c2c(C(=O)O)sc3ccccc23)C1 (stereo not drawn) | -7.22%
100 | CN1C[C@H](O)[C@]2(CCN(C(=O)NCc3ccccc3)C2)S1(=O)=O | -8.64%
101 | CN(C)S(=O)(=O)c1ccc2c(c1)N(Cc1nccn1C)CC2 | -3.03%
102 | O=C(NC[C@H]1OC[C@@H]2CN(Cc3ccco3)CC[C@@H]21)c1cscn1 | 0.732%
103 | CCn1nc2c(cc1=O)CN(Cc1ccc(-n3cccn3)cc1)CC2 | 2.14%
104 | COCC1CC2(CCN(C(=O)c3oc4ccccc4c3C)CC2)CO1 (stereo not drawn) | 3.46%
105 | Cc1nc(CN2CCC23CCN(C(=O)c2ccco2)CC3)cs1 | -1.36%
106 | CC(NC(=O)CCn1cccn1)c1cn(-c2ccccc2)nn1 (stereo not drawn) | -5.23%
107 | CN(Cc1ccc(-n2cccn2)cc1)c1cc(N)nc(N)n1 | 18.4%
108 | Cc1cc(C)n(CC(C)NC(=O)C2(c3ccccc3F)CC2)n1 (stereo not drawn) | -7.8%
109 | O=C(CNc1ccccc1Cl)Nc1cc(-n2cnnn2)ccc1F | -117%
110 | Cc1n[nH]c(C)c1C1COCCN1C(=O)c1ccc(Cl)o1 (stereo not drawn) | 18%
111 | COCCN1CCC(C(=O)N(C)CCOc2ccc(C)cc2Cl)C1 (stereo not drawn) | 20.7%
112 | COC(C)(C)C(=O)N[C@H]1CN(c2ncccc2C(N)=O)C[C@@H]1C(C)C | 0.335%
113 | CCCN1C(=O)C2(CCCCC2)NC1c1c[nH]nc1-c1cccnc1 (stereo not drawn) | 12.8%
